Assay results from patent US20120122896A1, “2,1,3-BENZOXADIAZOL DERIVATIVES FOR THE INHIBITION OF INFLUENZA A AND B VIRUS AND RESPIRATORY SYNCYTIAL VIRUS REPLICATION” (PIKE PHARMA GMBH, priority 2009, published 2012).
Read-outs that look alike come from different tables or passages of the source.

Columns and labels:
[1] = target: interaction between PB1 and PA (Influenza A virus, UniProt P03433); test: biochemical; format: binding; settings: for IC50: calculated from inhibition at maximum obtainable concentration where solubility too low, read-out: IC50 [μM] (ELISA); for inhibition at 1000 µM: highest concentration used, read-out: Max. Inhibition (ELISA) at 1000 μM
[2] = system: RSV (Long strain); test: RSV induced cell death reduction in HEp-2 cells; format: cell-based, respiratory syncytial virus; settings: for RSV activity, Maximum inhibition (in words): serial dilution 100 to 0.14 μM, 72 h; for inhibition at 33 µM: HEp-2, read-out: RSV activity, Maximum inhibition
[3] = system: influenza virus (A/WSN/33); test: plaque reduction assay, influenza virus in MDCK cells; format: cell-based
[4] = human respiratory syncytial virus, HEp-2
[5] = human respiratory syncytial virus, HEp-2, read-out: RSV activity, Maximum inhibition
[6] = human respiratory syncytial virus

| SMILES | Active in ELISA ([1]; prescreening) | RSV activity, Maximum inhibition (in words) [2] | IC50 [1] [µM] | inhibition of RSV replication (summary in words) [2] | also measured |
| --- | --- | --- | --- | --- | --- |
| COc1ccc(CSc2ccc([N+](=O)[O-])c3nonc23)cc1 [PKE060, 4-[(4-methoxybenzyl)thio]-7-nitro-2,1,3-benzoxadiazole] | Yes |  |  |  |  |
| COc1ccc(S(=O)(=O)OCCSc2ccc([N+](=O)[O-])c3nonc23)cc1 [PKE061, 2-[(7-nitro-2,1,3-benzoxadiazol-4-yl)thio]ethyl 4-methoxybenzene-1-sulfonate] | Yes | inactive | > 1000 |  | inhibition at 1000 µM [1]: 37% |
| Cc1ccc(Sc2ccc([N+](=O)[O-])c3nonc23)cc1 [PKE068, 4-[(4-methylphenyl)thio]-7-nitro-2,1,3-benzoxadiazole] | Yes |  | > 1000 |  | inhibition at 1000 µM [1]: 46% |
| COc1ccc(Nc2ccc([N+](=O)[O-])c3nonc23)cc1 [PKE069, N4-(4-methoxyphenyl)-7-nitro-2,1,3-benzoxadiazol-4-amine] | No | inactive |  |  |  |
| O=[N+]([O-])c1ccc(Nc2ccc(F)cc2)c2nonc12 [PKE070, N4-(4-fluorophenyl)-7-nitro-2,1,3-benzoxadiazol-4-amine] | No |  |  | effective | IC50 [2, 4]: 4 µM; inhibition at 11 µM [2, 5]: 75% |
| O=[N+]([O-])c1ccc(Nc2cccc(F)c2)c2nonc12 [PKE071, N4-(3-fluorophenyl)-7-nitro-2,1,3-benzoxadiazol-4-amine] | No |  |  | effective | IC50 [2, 4]: 4 µM; inhibition at 11 µM [2, 5]: 73% |
| O=[N+]([O-])c1ccc(N2CCCC2)c2nonc12 [PKE072, 4-nitro-7-tetrahydro-1H-pyrrol-1-yl-2,1,3-benzoxadiazole] |  |  |  | effective | inhibition at 33 µM [2, 6]: 44%; Active in ELISA [1]: No |
| O=[N+]([O-])c1ccc(NCc2cccs2)c2nonc12 [PKE073, N4-(2-thienylmethyl)-7-nitro-2,1,3-benzoxadiazol-4-amine] |  |  |  | effective | inhibition at 33 µM [2, 6]: 42%; Active in ELISA [1]: No |
| Cc1ccc(Nc2ccc([N+](=O)[O-])c3nonc23)cc1 [PKE074, N4-(4-methylphenyl)-7-nitro-2,1,3-benzoxadiazol-4-amine] | No |  |  |  |  |
| O=[N+]([O-])c1ccc(Sc2ccc(Cl)cc2Cl)c2nonc12 [PKE075, 4-[(2,4-dichlorophenyl)thio]-7-nitro-2,1,3-benzoxadiazole] | Yes |  | > 1000 |  | inhibition at 1000 µM [1]: 35% |
| O=[N+]([O-])c1ccc(SCCO)c2nonc12 [PKE076, 2-[(7-nitro-2,1,3-benzoxadiazol-4-yl)thio]ethan-1-ol] |  | inactive |  |  |  |
| Cc1ccc(CSc2ccc([N+](=O)[O-])c3nonc23)cc1 [PKE077, 4-[(4-methylbenzyl)thio]-7-nitro-2,1,3-benzoxadiazole] | Yes | inactive | > 1000 |  | inhibition at 1000 µM [1]: 33% |
| Cc1cccc(Nc2ccc([N+](=O)[O-])c3nonc23)c1 [PKE078, N4-(3-methylphenyl)-7-nitro-2,1,3-benzoxadiazol-4-amine] | No |  |  | effective | IC50 [2, 4]: 6 µM; inhibition at 11 µM [2, 5]: 56% |
| O=[N+]([O-])c1ccc(Sc2ccc(F)cc2)c2nonc12 [PKE079, 4-[(4-fluorophenyl)thio]-7-nitro-2,1,3-benzoxadiazole] | Yes |  | 125 | effective | IC50 [2, 4]: 7 µM; inhibition at 11 µM [2, 5]: 53%; inhibition of the replication of influenza virus, particularly influenza A (summary in words) [3]: effectively inhibited |
| O=[N+]([O-])c1ccc(Sc2cccc(Cl)c2)c2nonc12 [PKE080, 4-[(3-chlorophenyl)thio]-7-nitro-2,1,3-benzoxadiazole] | Yes |  | 60 |  |  |
| O=C(OCCSc1ccc([N+](=O)[O-])c2nonc12)c1ccc(Cl)cc1Cl [PKE081, 2-[(7-nitro-2,1,3-benzoxadiazol-4-yl)thio]ethyl 2,4-dichlorobenzoate] | No |  |  |  |  |
| COc1ccc(C(=O)OCCSc2ccc([N+](=O)[O-])c3nonc23)cc1 [PKE082, 2-[(7-nitro-2,1,3-benzoxadiazol-4-yl)thio]ethyl-4-methoxybenzoate] | Yes |  | 100 |  |  |
| O=C(OCCSc1ccc([N+](=O)[O-])c2nonc12)c1ccccc1 [PKE083, 2-[(7-nitro-2,1,3-benzoxadiazol-4-yl)thio]ethyl benzoate] | No | inactive |  |  |  |

| SMILES | Active in ELISA ([1]; prescreening) | RSV activity, Maximum inhibition (in words) [2] | IC50 [1] [µM] | inhibition of RSV replication (summary in words) [2] | also measured |
| --- | --- | --- | --- | --- | --- |
| O=[N+]([O-])c1ccc(SCc2ccccc2)c2nonc12 [PKE107, 4-nitro-7-(phenylmethylsulfanyl)-2,1,3-benzoxadiazole] | Yes | inactive | 125 |  | inhibition of the replication of influenza virus, particularly influenza A (summary in words) [3]: effectively inhibited |
| O=[N+]([O-])c1ccc(S(=O)(=O)Cc2ccccc2)c2nonc12 [PKE108, 4-nitro-7-(phenylmethylsulfonyl)-2,1,3-benzoxadiazole] | Yes | inactive | 500 |  | inhibition of the replication of influenza virus, particularly influenza A (summary in words) [3]: effectively inhibited |
| Nc1nc(Sc2ccc([N+](=O)[O-])c3nonc23)c2[nH]cnc2n1 [PKE110, 6-[(4-nitro-2,1,3-benzoxadiazol-7-yl)sulfanyl]-7H-purin-2-amine] | No | inactive |  |  |  |
| O=[N+]([O-])c1ccc(Nc2ccccc2)c2nonc12 [PKE118, 4-nitro-N-phenyl-2,1,3-benzoxadiazol-7-amine] | No |  |  | effective | inhibition at 11 µM [2, 5]: 44% |
| COc1ccc(Nc2ccc([N+](=O)[O-])c3nonc23)cc1 [PKE119, N-(4-methoxyphenyl)-4-nitro-2,1,3-benzoxadiazol-7-amine] |  |  |  | effective | inhibition at 11 µM [2, 5]: 21% |
| O=[N+]([O-])c1ccc(Nc2ccc(Cl)cc2)c2nonc12 [PKE120, N-(4-chlorophenyl)-4-nitro-2,1,3-benzoxadiazol-7-amine] | No |  |  | effective | IC50 [2, 4]: 2 µM; inhibition at 3.7 µM ([2]; human respiratory syncytial virus, HEp-2, at 3.7 μM, read-out: RSV activity, Maximum inhibition): 67% |
| COc1ccc(CNc2ccc([N+](=O)[O-])c3nonc23)cc1 [PKE130, N-[(4-methoxyphenyl)methyl]-4-nitro-2,1,3-benzoxadiazol-7-amine] |  |  |  | effective | inhibition at 33 µM [2, 6]: 48%; Active in ELISA [1]: No |
| Cc1ccccc1Nc1ccc([N+](=O)[O-])c2nonc12 [PKE131, N-(2-methylphenyl)-4-nitro-2,1,3-benzoxadiazol-7-amine] | No |  |  | effective | inhibition at 11 µM [2, 5]: 48% |
| O=[N+]([O-])c1ccc(N2CCN(Cc3ccccc3)CC2)c2c1no[n+]2[O-] [PKE133, 4-nitro-1-oxido-7-[4-(phenylmethyl)piperazin-1-yl]-2,1,3-benzoxadiazol-1-ium] | No | inactive |  |  |  |
| CCCCN1CCN(c2ccc([N+](=O)[O-])c3no[n+]([O-])c23)CC1 [PKE134, 7-(4-butylpiperazin-1-yl)-4-nitro-1-oxido-2,1,3-benzoxadiazol-1-ium] | No | inactive |  |  |  |
| O=[N+]([O-])c1ccc(N2CCN(c3ccccc3)CC2)c2nonc12 [PKE135, 4-nitro-7-(4-phenylpiperazin-1-yl)-2,1,3-benzoxadiazole] | No | inactive |  |  |  |
| CCN(CC)CCCNc1ccc([N+](=O)[O-])c2no[n+]([O-])c12 [PKE136, N,N-diethyl-N′-(4-nitro-1-oxido-2,1,3-benzoxadiazol-1-ium-7-yl)propane-1,3-diamine] | No | inactive |  |  |  |
| O=[N+]([O-])c1ccc(Sc2ncnc3c2ncn3C2OC(CO)C(O)C2O)c2nonc12 (centres unmarked) [PKE137, 2-(hydroxymethyl)-5-[6-[(4-nitro-2,1,3-benzoxadiazol-7-yl)sulfanyl]purin-9-yl]oxolane-3,4-diol] | Yes | inactive | 200 |  | inhibition of the replication of influenza virus, particularly influenza A (summary in words) [3]: effectively inhibited |
| O=[N+]([O-])c1ccc(Sc2ncnc3nc[nH]c23)c2nonc12 [PKE139, 4-nitro-7-(7H-purin-6-ylsulfanyl)-2,1,3-benzoxadiazole] | No | inactive |  |  |  |
| CC(C)(C)c1csc(-c2ccc3nonc3c2)n1 [PKE140, 5-[4-(tert-butyl)-1,3-thiazol-2-yl]-2,1,3-benzoxadiazole] | Yes | inactive | > 1000 |  | inhibition at 1000 µM [1]: 34% |
| O=[N+]([O-])c1c(NCc2ccccc2)ccc2nonc12 [PKE190, N-benzyl-4-nitro-2,1,3-benzoxadiazol-5-amine] | Yes | inactive | > 1000 |  | inhibition at 1000 µM [1]: 37% |
| CCN(CC)c1cc(Cl)c2nonc2c1[N+](=O)[O-] [PKE191, 7-chloro-N,N-diethyl-4-nitro-2,1,3-benzoxadiazol-5-amine] | No |  |  | effective | inhibition at 11 µM [2, 5]: 20% |
| O=c1[nH]nc(Sc2ccccc2)c2nncn12 [PKE217, 8-phenylsulfanyl-6H-[1,2,4]triazolo[4,3-d][1,2,4]triazin-5-one] | No |  |  |  |  |
